# Reference: ChEMBL document CHEMBL4033638, “Effect of natural and semi-synthetic cadinanes from Heterotheca inuloides on NF-κB, Nrf2 and STAT3 signaling pathways and evaluation of their in vitro cytotoxicity in human cancer cell lines” (Bioorg Med Chem, 2017)
# Calls of active or inactive are those of the source. The rule behind the calls is not given here.
# Tested on: HCT-15
# Assay: Antiproliferative activity against human HCT15 cells at 50 uM after 48 hrs by sulforhodamine B assay relative to control
# Format: functional
# Conditions: HCT-15, 48 h
row,Structure (SMILES),inhibition at 50 µM
1,CC1=CC[C@H](C(C)C)c2cc(C)c(OC(=O)c3cccc(Cl)c3)cc21,5.3%
2,CC1=CC[C@H](C(C)C)c2cc(C)c(OC(=O)c3ccc([N+](=O)[O-])cc3)cc21,67.8%
3,COc1ccc(C(=O)Oc2cc3c(cc2C)[C@@H](C(C)C)CC=C3C)cc1,30.8%
4,Cc1cc2c(C(C)C)ccc(C)c2cc1OC(=O)c1ccc(C(F)(F)F)cc1,55.6%
5,CC1=CC[C@H](C(C)C)c2cc(C)c(OC(=O)c3ccc(Cl)cc3)cc21,47.4%
6,Cc1cc2c(C(C)C)ccc(C)c2cc1OC(=O)c1ccc(Cl)cc1,82.2%
7,CC1=CC[C@H](C(C)C)c2cc(C)c(OC(=O)c3ccc(C(F)(F)F)cc3)cc21,6.4%

# Tested on: U-251
# Assay: Antiproliferative activity against human U251 cells at 50 uM after 48 hrs by sulforhodamine B assay relative to control
# Format: functional
# Conditions: U-251, 48 h
row,Structure (SMILES),inhibition at 50 µM
1,CC1=CC[C@H](C(C)C)c2cc(C)c(OC(=O)c3cccc(Cl)c3)cc21,0.9%
2,CC1=CC[C@H](C(C)C)c2cc(C)c(OC(=O)c3ccc([N+](=O)[O-])cc3)cc21,16.8%
3,COc1ccc(C(=O)Oc2cc3c(cc2C)[C@@H](C(C)C)CC=C3C)cc1,37%
4,Cc1cc2c(C(C)C)ccc(C)c2cc1OC(=O)c1ccc(C(F)(F)F)cc1,16.5%
5,CC1=CC[C@H](C(C)C)c2cc(C)c(OC(=O)c3ccc(Cl)cc3)cc21,25.6%
6,Cc1cc2c(C(C)C)ccc(C)c2cc1OC(=O)c1ccc(Cl)cc1,92.8%
7,CC1=CC[C@H](C(C)C)c2cc(C)c(OC(=O)c3ccc(C(F)(F)F)cc3)cc21,14.7%

# Tested on: SK-LU-1
# Assay: Antiproliferative activity against human SK-LU-1 cells after 48 hrs by sulforhodamine B assay
# Format: functional, cell-based
# Conditions: SK-LU-1, 48 h
row,IC50,Structure (SMILES)
1,42.9 µM,CC1=CC[C@H](C(C)C)c2cc(C)c(OC(=O)c3ccc([N+](=O)[O-])cc3)cc21
2,23.9 µM,Cc1cc2c(C(C)C)ccc(C)c2cc1OC(=O)c1ccc(Cl)cc1

# Tested on: SK-LU-1
# Assay: Antiproliferative activity against human SK-LU-1 cells at 50 uM after 48 hrs by sulforhodamine B assay relative to control
# Format: functional
# Conditions: not given
row,Structure (SMILES),inhibition
1,CC1=CC[C@H](C(C)C)c2cc(C)c(OC(=O)c3ccc(C(F)(F)F)cc3)cc21,inactive

# Same assay, conditions: SK-LU-1, 48 h
row,Structure (SMILES),inhibition at 50 µM
1,CC1=CC[C@H](C(C)C)c2cc(C)c(OC(=O)c3cccc(Cl)c3)cc21,30.6%
2,CC1=CC[C@H](C(C)C)c2cc(C)c(OC(=O)c3ccc([N+](=O)[O-])cc3)cc21,47.5%
3,COc1ccc(C(=O)Oc2cc3c(cc2C)[C@@H](C(C)C)CC=C3C)cc1,18.6%
4,Cc1cc2c(C(C)C)ccc(C)c2cc1OC(=O)c1ccc(C(F)(F)F)cc1,28.7%
5,CC1=CC[C@H](C(C)C)c2cc(C)c(OC(=O)c3ccc(Cl)cc3)cc21,17.4%
6,Cc1cc2c(C(C)C)ccc(C)c2cc1OC(=O)c1ccc(Cl)cc1,100%

# Tested on: HCT-15
# Assay: Antiproliferative activity against human HCT15 cells after 48 hrs by sulforhodamine B assay
# Format: functional, cell-based
# Conditions: HCT-15, 48 h
row,IC50,Structure (SMILES)
1,56.3 µM,CC1=CC[C@H](C(C)C)c2cc(C)c(OC(=O)c3ccc([N+](=O)[O-])cc3)cc21
2,34 µM,Cc1cc2c(C(C)C)ccc(C)c2cc1OC(=O)c1ccc(Cl)cc1

# Tested on: MCF7
# Assay: Antiproliferative activity against human MCF7 cells at 50 uM after 48 hrs by sulforhodamine B assay relative to control
# Format: functional
# Conditions: MCF7, 48 h
row,Structure (SMILES),inhibition at 50 µM
1,CC1=CC[C@H](C(C)C)c2cc(C)c(OC(=O)c3cccc(Cl)c3)cc21,40.4%
2,CC1=CC[C@H](C(C)C)c2cc(C)c(OC(=O)c3ccc([N+](=O)[O-])cc3)cc21,72.9%
3,COc1ccc(C(=O)Oc2cc3c(cc2C)[C@@H](C(C)C)CC=C3C)cc1,80.1%
4,Cc1cc2c(C(C)C)ccc(C)c2cc1OC(=O)c1ccc(C(F)(F)F)cc1,16.8%
5,CC1=CC[C@H](C(C)C)c2cc(C)c(OC(=O)c3ccc(Cl)cc3)cc21,79.7%
6,Cc1cc2c(C(C)C)ccc(C)c2cc1OC(=O)c1ccc(Cl)cc1,76%
7,CC1=CC[C@H](C(C)C)c2cc(C)c(OC(=O)c3ccc(C(F)(F)F)cc3)cc21,40.4%

# Tested on: K562
# Assay: Antiproliferative activity against human K562 cells after 48 hrs by sulforhodamine B assay
# Format: functional, cell-based
# Conditions: K562, 48 h
row,IC50,Structure (SMILES)
1,19.1 µM,Cc1cc2c(C(C)C)ccc(C)c2cc1OC(=O)c1ccc(Cl)cc1

# Tested on: U-251
# Assay: Antiproliferative activity against human U251 cells after 48 hrs by sulforhodamine B assay
# Format: functional, cell-based
# Conditions: U-251, 48 h
row,IC50,Structure (SMILES)
1,35.5 µM,Cc1cc2c(C(C)C)ccc(C)c2cc1OC(=O)c1ccc(Cl)cc1

# Tested on: MCF7
# Assay: Antiproliferative activity against human MCF7 cells after 48 hrs by sulforhodamine B assay
# Format: functional, cell-based
# Conditions: MCF7, 48 h
row,IC50,Structure (SMILES)
1,32.1 µM,Cc1cc2c(C(C)C)ccc(C)c2cc1OC(=O)c1ccc(Cl)cc1

# Target: T1, Nuclear factor erythroid 2-related factor 2 (Homo sapiens) (UniProt Q16236)
# T1 sequence (whole entry): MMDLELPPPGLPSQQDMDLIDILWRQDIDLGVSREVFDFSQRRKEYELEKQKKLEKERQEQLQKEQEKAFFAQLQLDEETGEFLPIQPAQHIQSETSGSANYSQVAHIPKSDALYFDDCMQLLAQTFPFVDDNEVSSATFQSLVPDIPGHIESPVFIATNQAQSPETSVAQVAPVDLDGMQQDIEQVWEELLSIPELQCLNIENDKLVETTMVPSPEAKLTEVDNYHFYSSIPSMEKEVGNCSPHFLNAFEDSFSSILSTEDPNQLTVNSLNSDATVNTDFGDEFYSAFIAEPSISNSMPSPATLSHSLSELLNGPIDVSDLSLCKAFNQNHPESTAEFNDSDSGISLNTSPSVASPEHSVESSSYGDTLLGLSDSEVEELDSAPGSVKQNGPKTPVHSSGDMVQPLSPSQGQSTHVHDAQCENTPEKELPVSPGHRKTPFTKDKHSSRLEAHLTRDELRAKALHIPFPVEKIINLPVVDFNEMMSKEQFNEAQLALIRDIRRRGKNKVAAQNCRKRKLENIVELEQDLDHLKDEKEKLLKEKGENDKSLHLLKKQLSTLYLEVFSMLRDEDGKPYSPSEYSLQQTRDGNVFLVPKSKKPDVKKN
# Assay: Activation of Nrf2 in human HaCaT-ARE-Luc cells at 50 uM after 6 hrs by luciferase reporter gene assay relative to control
# Format: cell-based
# Conditions: not given
row,fold change (FC),Structure (SMILES)
1,1.7,Cc1cc2c(C(C)C)ccc(C)c2cc1OC(=O)c1ccc(C(F)(F)F)cc1
2,1.3,CC1=CC[C@H](C(C)C)c2cc(C)c(OC(=O)c3ccc(Cl)cc3)cc21
3,1.7,Cc1cc2c(C(C)C)ccc(C)c2cc1OC(=O)c1ccc(Cl)cc1

# Further lines, the compound ahead of its results:
row,Structure (SMILES),fold change (FC)
1,CC1=CC[C@H](C(C)C)c2cc(C)c(OC(=O)c3cccc(Cl)c3)cc21,1.4
2,CC1=CC[C@H](C(C)C)c2cc(C)c(OC(=O)c3ccc([N+](=O)[O-])cc3)cc21,8.5
3,COc1ccc(C(=O)Oc2cc3c(cc2C)[C@@H](C(C)C)CC=C3C)cc1,1.9
4,CC1=CC[C@H](C(C)C)c2cc(C)c(OC(=O)c3ccc(C(F)(F)F)cc3)cc21,1.6

# Tested on: PC-3
# Assay: Antiproliferative activity against human PC3 cells at 50 uM after 48 hrs by sulforhodamine B assay relative to control
# Format: functional
# Conditions: PC-3, 48 h
row,Structure (SMILES),inhibition at 50 µM
1,CC1=CC[C@H](C(C)C)c2cc(C)c(OC(=O)c3cccc(Cl)c3)cc21,23.4%
2,CC1=CC[C@H](C(C)C)c2cc(C)c(OC(=O)c3ccc([N+](=O)[O-])cc3)cc21,36.7%
3,COc1ccc(C(=O)Oc2cc3c(cc2C)[C@@H](C(C)C)CC=C3C)cc1,60.6%
4,Cc1cc2c(C(C)C)ccc(C)c2cc1OC(=O)c1ccc(C(F)(F)F)cc1,100%
5,CC1=CC[C@H](C(C)C)c2cc(C)c(OC(=O)c3ccc(Cl)cc3)cc21,34.1%
6,Cc1cc2c(C(C)C)ccc(C)c2cc1OC(=O)c1ccc(Cl)cc1,81.1%
7,CC1=CC[C@H](C(C)C)c2cc(C)c(OC(=O)c3ccc(C(F)(F)F)cc3)cc21,12.3%

# Tested on: K562
# Assay: Antiproliferative activity against human K562 cells at 50 uM after 48 hrs by sulforhodamine B assay relative to control
# Format: functional
# Conditions: not given
row,Structure (SMILES),inhibition
1,CC1=CC[C@H](C(C)C)c2cc(C)c(OC(=O)c3cccc(Cl)c3)cc21,inactive

# Same assay, conditions: K562, 48 h
row,Structure (SMILES),inhibition at 50 µM
1,CC1=CC[C@H](C(C)C)c2cc(C)c(OC(=O)c3ccc([N+](=O)[O-])cc3)cc21,89%
2,COc1ccc(C(=O)Oc2cc3c(cc2C)[C@@H](C(C)C)CC=C3C)cc1,46.5%
3,Cc1cc2c(C(C)C)ccc(C)c2cc1OC(=O)c1ccc(C(F)(F)F)cc1,45.1%
4,CC1=CC[C@H](C(C)C)c2cc(C)c(OC(=O)c3ccc(Cl)cc3)cc21,58.9%
5,Cc1cc2c(C(C)C)ccc(C)c2cc1OC(=O)c1ccc(Cl)cc1,95.4%
6,CC1=CC[C@H](C(C)C)c2cc(C)c(OC(=O)c3ccc(C(F)(F)F)cc3)cc21,9%

# Target: Signal transducer and activator of transcription 3 (Homo sapiens) (UniProt P40763)
# Assay: Inhibition of IFNgamma-stimulated STAT3 (unknown origin) activation expressed in human HeLa cells at 50 uM after 6 hrs by luciferase reporter gene assay relative to control
# Format: cell-based
# Conditions: not given
# Chain of Signal transducer and activator of transcription 3 (Homo sapiens) (P40763 whole entry): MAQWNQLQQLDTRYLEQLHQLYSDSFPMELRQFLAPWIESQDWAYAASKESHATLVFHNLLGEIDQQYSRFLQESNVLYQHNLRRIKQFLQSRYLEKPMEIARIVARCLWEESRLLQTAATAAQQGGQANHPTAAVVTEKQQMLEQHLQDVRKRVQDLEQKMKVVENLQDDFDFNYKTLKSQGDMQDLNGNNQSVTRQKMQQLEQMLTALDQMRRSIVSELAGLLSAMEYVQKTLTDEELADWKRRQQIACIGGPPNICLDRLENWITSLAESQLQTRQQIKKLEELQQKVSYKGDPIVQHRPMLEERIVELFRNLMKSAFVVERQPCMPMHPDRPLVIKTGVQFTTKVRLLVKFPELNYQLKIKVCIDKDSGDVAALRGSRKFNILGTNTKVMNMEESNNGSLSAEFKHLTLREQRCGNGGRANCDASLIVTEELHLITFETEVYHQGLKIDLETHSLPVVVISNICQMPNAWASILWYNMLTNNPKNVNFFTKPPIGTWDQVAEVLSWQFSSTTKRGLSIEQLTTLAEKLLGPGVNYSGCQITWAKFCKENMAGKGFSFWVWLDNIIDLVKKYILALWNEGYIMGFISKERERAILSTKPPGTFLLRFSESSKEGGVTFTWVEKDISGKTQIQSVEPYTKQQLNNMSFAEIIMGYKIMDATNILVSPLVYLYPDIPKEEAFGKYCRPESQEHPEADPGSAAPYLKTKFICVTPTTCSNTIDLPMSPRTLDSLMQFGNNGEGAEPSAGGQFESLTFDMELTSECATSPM
row,inhibition,Structure (SMILES)
1,0.9%,Cc1cc2c(C(C)C)ccc(C)c2cc1OC(=O)c1ccc(C(F)(F)F)cc1
2,2.7%,CC1=CC[C@H](C(C)C)c2cc(C)c(OC(=O)c3ccc(Cl)cc3)cc21
3,1.3%,Cc1cc2c(C(C)C)ccc(C)c2cc1OC(=O)c1ccc(Cl)cc1

# More lines, now with the values behind:
row,Structure (SMILES),inhibition
1,CC1=CC[C@H](C(C)C)c2cc(C)c(OC(=O)c3cccc(Cl)c3)cc21,1.5%
2,CC1=CC[C@H](C(C)C)c2cc(C)c(OC(=O)c3ccc([N+](=O)[O-])cc3)cc21,1.6%
3,COc1ccc(C(=O)Oc2cc3c(cc2C)[C@@H](C(C)C)CC=C3C)cc1,1.8%
4,CC1=CC[C@H](C(C)C)c2cc(C)c(OC(=O)c3ccc(C(F)(F)F)cc3)cc21,2.5%

# Tested on: PC-3
# Assay: Antiproliferative activity against human PC3 cells after 48 hrs by sulforhodamine B assay
# Format: functional, cell-based
# Conditions: PC-3, 48 h
row,IC50,Structure (SMILES)
1,34 µM,Cc1cc2c(C(C)C)ccc(C)c2cc1OC(=O)c1ccc(C(F)(F)F)cc1
2,44 µM,Cc1cc2c(C(C)C)ccc(C)c2cc1OC(=O)c1ccc(Cl)cc1

# The remaining lines, values behind:
row,Structure (SMILES),IC50
1,CC1=CC[C@H](C(C)C)c2cc(C)c(OC(=O)c3ccc([N+](=O)[O-])cc3)cc21,42.5 µM
2,COc1ccc(C(=O)Oc2cc3c(cc2C)[C@@H](C(C)C)CC=C3C)cc1,32.2 µM

# Tested on: not listed separately
# Assay: Inhibition of TNFalpha-stimulated NFkappaB (unknown origin) expressed in mouse NIH-3T3-KBFLuc cells at 50 uM after 6 hrs by luciferase reporter gene assay relative to control
# Format: cell-based
# Conditions: Homo sapiens
row,Structure (SMILES),inhibition
1,CC1=CC[C@H](C(C)C)c2cc(C)c(OC(=O)c3cccc(Cl)c3)cc21,22.5%
2,CC1=CC[C@H](C(C)C)c2cc(C)c(OC(=O)c3ccc([N+](=O)[O-])cc3)cc21,7.2%
3,COc1ccc(C(=O)Oc2cc3c(cc2C)[C@@H](C(C)C)CC=C3C)cc1,49.2%
4,Cc1cc2c(C(C)C)ccc(C)c2cc1OC(=O)c1ccc(C(F)(F)F)cc1,5.2%
5,CC1=CC[C@H](C(C)C)c2cc(C)c(OC(=O)c3ccc(Cl)cc3)cc21,36.1%
6,Cc1cc2c(C(C)C)ccc(C)c2cc1OC(=O)c1ccc(Cl)cc1,15.5%
7,CC1=CC[C@H](C(C)C)c2cc(C)c(OC(=O)c3ccc(C(F)(F)F)cc3)cc21,25.4%
